Ten compounds from patent US10981926B2 (Janssen Pharmaceutica NV, priority 2016, dated 2021) can be followed below.

The target in assay [1] is T1, F876L mutant Androgen Receptor (AR-F876L) (Homo sapiens (Human), UniProt P10275, F877L). Description: LNCaP-AR-F876L AG reporter assay (agonist mode). It is filed as cell-based. The note with it: for EC50: read-out: LNCaP-AR-F876L AG pEC50 (converted); for Emax: read-out: LNCaP-AR-F876L AG MAX % Stim. In general terms: In a reporter assay the amount or activity of a reporter protein is the signal.
T1 sequence (P10275 whole entry F877L): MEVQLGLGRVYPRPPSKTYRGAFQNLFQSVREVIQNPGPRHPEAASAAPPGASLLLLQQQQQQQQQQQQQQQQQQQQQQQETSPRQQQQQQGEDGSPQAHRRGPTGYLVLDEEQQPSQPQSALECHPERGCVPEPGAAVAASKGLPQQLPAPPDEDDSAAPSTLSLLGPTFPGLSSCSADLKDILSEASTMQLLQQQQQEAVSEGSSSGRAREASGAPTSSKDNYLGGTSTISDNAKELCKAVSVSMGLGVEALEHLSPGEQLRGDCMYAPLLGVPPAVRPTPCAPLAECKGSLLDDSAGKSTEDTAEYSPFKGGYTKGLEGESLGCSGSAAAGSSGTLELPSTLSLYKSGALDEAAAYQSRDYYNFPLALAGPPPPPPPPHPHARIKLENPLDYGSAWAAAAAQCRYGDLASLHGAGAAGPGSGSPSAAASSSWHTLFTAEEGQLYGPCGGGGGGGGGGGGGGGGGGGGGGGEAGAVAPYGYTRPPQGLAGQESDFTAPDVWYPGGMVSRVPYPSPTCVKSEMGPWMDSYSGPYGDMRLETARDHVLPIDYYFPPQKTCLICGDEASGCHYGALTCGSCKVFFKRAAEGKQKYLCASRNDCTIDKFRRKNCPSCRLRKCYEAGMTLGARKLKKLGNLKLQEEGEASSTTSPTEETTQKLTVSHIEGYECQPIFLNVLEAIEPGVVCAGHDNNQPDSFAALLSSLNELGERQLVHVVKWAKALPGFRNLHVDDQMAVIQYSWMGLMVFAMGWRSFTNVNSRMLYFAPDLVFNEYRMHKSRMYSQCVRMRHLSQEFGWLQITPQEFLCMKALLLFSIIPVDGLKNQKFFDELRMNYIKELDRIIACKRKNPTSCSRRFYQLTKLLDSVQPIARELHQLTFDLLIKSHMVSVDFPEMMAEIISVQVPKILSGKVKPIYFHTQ

Assay [2] has as its target T2, wild-type Androgen Receptor (AR-wt) (Homo sapiens (Human), UniProt P10275). Description: LNCaP-AR-wt AG reporter assay (agonist mode). It counts as cell-based. The note with it: for EC50: read-out: LNCaP-AR-wt AG pEC50 (converted); for Emax: read-out: LNCaP-AR-wt AG MAX % Stim.
The target in assay [3] is T2, wild-type Androgen Receptor (AR-wt). Put plainly: LNCaP-AR-wt ANT reporter assay (antagonist mode). To be noted: for IC50: read-out: LNCaP-AR-wt ANT pIC50 (converted); for Emax: read-out: LNCaP-AR-wt ANT MAX % Inh. It counts as cell-based.
For assay [4], the system named is rGABA-gated Cl− channel. Put plainly: GABA-Gated Cl Channel Antagonist Radioligand Binding Assay. Further details: species or system rat. To be noted: 10 μM single point, [35S]-TBPS, cerebral cortex membrane homogenates. The method, boiled down:
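Values give percent inhibition of control specific […] (3 nM) binding at a single 10 μM compound concentration. Cerebral cortex membranes, 120 min, 22° C, phosphate buffer pH 7.4 with 500 mM NaCl; 20 μM picrotoxinin sets nonspecific binding; filtration and scintillation read-out.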

Assay [5] deals with T1, F876L mutant Androgen Receptor (AR-F876L). Put plainly: LNCaP-AR-F876L ANT reporter assay (antagonist mode). It counts as cell-based. To be noted: for IC50: read-out: LNCaP-AR-F876L ANT pIC50 (converted); for Emax: read-out: LNCaP-AR-F876L ANT MAX % Inh.
The mark [6] stands for this setting: agonist mode, pEC50 = −Log10(EC50 in Molar).
Where [7] appears, read: maximum % stimulation (agonist response) over the tested concentration range.
Setting [8] is: antagonist mode, pIC50 = −Log10(IC50 in Molar).
Setting [9] is: maximum % inhibition of R1881 control response over the tested concentration range.
Setting [10] is: agonist mode, maximum % stimulation over tested concentration range.
Setting [11] is: antagonist mode, maximum % inhibition of R1881 control response over tested concentration range.

T2 sequence (P10275 whole entry): as the sequence (P10275 whole entry F877L) above, with L877F counted along it

With `COCCN1CCC(Oc2ccc(N3C(=S)N(c4cnc(C#N)c(C(F)(F)F)c4)C(=O)C34CCC4)cc2)CC1` [Cpd 38, 5-[8-[4-[[1-(2-methoxyethyl)-4-piperidyl]oxy]phenyl]-5-oxo-7-thioxo-6,8-diazaspiro[3.4]octan-6-yl]-3-(trifluoromethyl)pyridine-2-carbonitrile], the EC50 in assay [1] (setting [6]) and in assay [2] (setting [6]) was greater than 15100 nM in each case. The Emax turned out to be 0.3% in assay [1] (setting [7]), 0% in assay [2] (setting [7]), 101% in assay [3] (setting [9]) and 99.9% in assay [5] (setting [9]). Moreover, the figures for the IC50 in assay [3] (setting [8]) and in assay [5] (setting [8]) were 708 nM and 324 nM, respectively. In addition, the “rGABA-gated Cl− channel % inh @10 μM” value in assay [4] was 69.2%.

Regarding `N#Cc1ncc(N2C(=O)C3(CCC3)N(c3ccc(OC4CCN(CCO)CC4)cc3)C2=S)cc1Cl` [Cpd 50, 3-chloro-5-[8-[4-[[1-(2-hydroxyethyl)-4-piperidyl]oxy]phenyl]-5-oxo-7-thioxo-6,8-diazaspiro[3.4]octan-6-yl]pyridine-2-carbonitrile], the EC50 in assay [1] (setting [6]) and in assay [2] (setting [6]) was greater than 15100 nM in each case. Besides, the Emax in assay [1] (setting [7]) came to 1.4%; in assay [2] (setting [7]), 0.1%; in assay [3] (setting [9]) it was 101%; in assay [5] (setting [9]), 98%. The results for the IC50 in assay [3] (setting [8]) and in assay [5] (setting [8]) were 16.2 nM and 8.71 nM, respectively. In assay [4], the “rGABA-gated Cl− channel % inh @10 μM” value is given as 13.2%.

With `CN1CCC(Oc2ccc(N3C(=S)N(c4cnc(C#N)c(C(F)(F)F)c4)C(=O)C34CCC4)cc2)CC1=O` (racemic) [Cpd 189, (R,S)-5-[8-[4-[(1-methyl-2-oxo-4-piperidyl)oxy]phenyl]-5-oxo-7-thioxo-6,8-diazaspiro[3.4]octan-6-yl]-3-(trifluoromethyl)pyridine-2-carbonitrile], the Emax was determined as 1.7% in assay [1] (setting [10]), 0% in assay [2] (setting [10]), 100% in assay [3] (setting [11]) and 99.1% in assay [5] (setting [11]). In addition, the EC50 in assay [1] (setting [6]) and in assay [2] (setting [6]) was greater than 15100 nM throughout. The IC50 in assay [3] (setting [8]) is 69.2 nM; in assay [5] (setting [8]) it was 81.3 nM. In addition, in assay [4], the “rGABA-gated Cl− channel % inh @10 μM” value came to 90.4%.

Regarding `N#Cc1ncc(N2C(=O)C3(CCC3)N(c3ccc(O[C@H]4CCN[C@H](CO)C4)cc3)C2=S)cc1C(F)(F)F` (racemic) [Cpd 222, 5-[8-(2SR,4SR)[4-[[2-(hydroxymethyl)-4-piperidyl]oxy]phenyl]-5-oxo-7-thioxo-6,8-diazaspiro[3.4]octan-6-yl]-3-(trifluoromethyl)pyridine-2-carbonitrile], the Emax was found to be 0.2% in assay [1] (setting [10]), 2.3% in assay [2] (setting [10]), 99.6% in assay [3] (setting [11]) and 99.6% in assay [5] (setting [11]). Besides, the EC50 in assay [1] (setting [6]) and in assay [2] (setting [6]) was greater than 15100 nM each time. Further, the results for the IC50 in assay [3] (setting [8]) and in assay [5] (setting [8]) were 129 nM and 81.3 nM, respectively. For the same compound, the “rGABA-gated Cl− channel % inh @10 μM” value in assay [4] turned out to be 61.4%.

As for `Cc1cc(N2C(=O)C3(CCC3)N(c3ccc(OC4CCN(CCO)CC4)nc3)C2=S)cnc1C#N` [Cpd 100, 5-[8-[6-[[1-(2-hydroxyethyl)-4-piperidyl]oxy]-3-pyridyl]-5-oxo-7-thioxo-6,8-diazaspiro[3.4]octan-6-yl]-3-methyl-pyridine-2-carbonitrile], the EC50 in assay [1] (setting [6]) and in assay [2] (setting [6]) was greater than 15100 nM throughout. For the same compound, the Emax in assay [1] (setting [7]) worked out at 0.5%; in assay [2] (setting [7]), 0.1%; in assay [3] (setting [9]) it was 100%; in assay [5] (setting [9]), 98.9%. Also, the IC50 in assay [3] (setting [8]) was 162 nM; in assay [5] (setting [8]), 58.9 nM. Also, the “rGABA-gated Cl− channel % inh @10 μM” value in assay [4] worked out at 2.3%.

As to `CN1CCC(Cn2cc3cc(N4C(=S)N(c5cnc(C#N)c(C(F)(F)F)c5)C(=O)C45CCC5)ccc3n2)CC1` [Cpd 129, 5-[8-[2-[(1-methyl-4-piperidyl)methyl]indazol-5-yl]-5-oxo-7-thioxo-6,8-diazaspiro[3.4]octan-6-yl]-3-(trifluoromethyl)pyridine-2-carbonitrile], the EC50 in assay [1] (setting [6]) and in assay [2] (setting [6]) was greater than 15100 nM throughout. In addition, the Emax in assay [1] (setting [7]) was 0.1%; in assay [2] (setting [7]), 0.9%; in assay [3] (setting [9]), 102%; in assay [5] (setting [9]) it was 100%. Further, the IC50 in assay [3] (setting [8]) was 77.6 nM; in assay [5] (setting [8]), 36.3 nM. Besides, in assay [4], the “rGABA-gated Cl− channel % inh @10 μM” value stood at 64.0%.

Take `COc1cc(N2C(=O)C3(CCC3)N(c3ccc(OC4CCNCC4)cc3)C2=S)cnc1C#N` [Cpd 154, 3-methoxy-5-[5-oxo-8-[4-(4-piperidyloxy)phenyl]-7-thioxo-6,8-diazaspiro[3.4]octan-6-yl]pyridine-2-carbonitrile]: the EC50 in assay [1] (setting [6]) and in assay [2] (setting [6]) was greater than 15100 nM in each case. Also, the Emax in assay [1] (setting [7]) was -0.1%; in assay [2] (setting [7]) it was -0.1%; in assay [3] (setting [9]), 102%; in assay [5] (setting [9]) it was 100%. Also, the IC50 was 468 nM in assay [3] (setting [8]) and 269 nM in assay [5] (setting [8]). Further, the “rGABA-gated Cl− channel % inh @10 μM” value in assay [4] is reported as −22.2%.

Turning to `C[C@@H]1OC(c2ccc(N3C(=S)N(c4cnc(C#N)c(C(F)(F)F)c4)C(=O)C34CCC4)cc2)=C[C@H](O)[C@H]1O` [Cpd 135, 5-(5-(4-((2S,3R,4S)-3,4-dihydroxy-2-methyl-3,4-dihydro-2H-pyran-6-yl)phenyl)-8-oxo-6-thioxo-5,7-diazaspiro[3.4]octan-7-yl)-3-(trifluoromethyl)picolinonitrile], the EC50 in assay [1] (setting [6]) and in assay [2] (setting [6]) was greater than 15100 nM in each case. The Emax in assay [1] (setting [7]) was -0.1%; in assay [2] (setting [7]), 0.1%; in assay [3] (setting [9]), 104%; in assay [5] (setting [9]) it was 102%. Also, the IC50 in assay [3] (setting [8]) is 389 nM; in assay [5] (setting [8]), 155 nM. The “rGABA-gated Cl− channel % inh @10 μM” value in assay [4] turned out to be 99.6%.

On to `N#Cc1ncc(N2C(=O)C3(CCC3)N(c3ccc(CC4CCC(N)CC4)cc3)C2=S)cc1C(F)(F)F` (stereo not drawn) [Cpd 233, 5-[8-[4-[(4-aminocyclohexyl)methyl]phenyl]-5-oxo-7-thioxo-6,8-diazaspiro[3.4]octan-6-yl]-3-(trifluoromethyl)pyridine-2-carbonitrile], for which the Emax in assay [1] (setting [10]) was 0%; in assay [2] (setting [10]), -0.2%; in assay [3] (setting [11]) it was 108%; in assay [5] (setting [11]), 103%. Moreover, the EC50 in assay [1] (setting [6]) and in assay [2] (setting [6]) was greater than 15100 nM each time. In addition, the IC50 is 240 nM in assay [3] (setting [8]) and 186 nM in assay [5] (setting [8]). Further, in assay [4], the “rGABA-gated Cl− channel % inh @10 μM” value was found to be 80.2%.

Regarding “3-chloro-5-[8-[2-(1-methyl-4-piperidyl)indazol-5-yl]-5-oxo-7-thioxo-6,8-diazaspiro[3.4]octan-6-yl]pyridine-2-carbonitrile [Cpd 181]”, the “LNCaP-AR-F876L AG pEC50” value in assay [1] (setting [6]) is listed as less than 4.82. For the same compound, the “LNCaP-AR-F876L AG MAX % Stim” value in assay [1] (setting [7]) was found to be 0.3%. The “LNCaP-AR-wt AG pEC50” value in assay [2] (setting [6]) is on record as less than 4.82. In addition, the “LNCaP-AR-wt AG MAX % Stim” value in assay [2] (setting [7]) came out at 1.9%. The “LNCaP-AR-wt ANT pIC50” value in assay [3] (setting [8]) worked out at 6.47. Besides, in assay [3] (setting [9]), the “LNCaP-AR-wt ANT MAX % Inh” value is 96.8%. Also, the “rGABA-gated Cl− channel % inh @10 μM” value in assay [4] is listed as 26.0%. In addition, in assay [5] (setting [8]), the “LNCaP-AR-F876L ANT pIC50” value is on record as 6.80. The “LNCaP-AR-F876L ANT MAX % Inh” value in assay [5] (setting [9]) was determined as 101.9%.
